The values below come from patent publication US20210323977A1, “PYRROLIDINYL AMIDE COMPOUNDS FOR THE TREATMENT OF AUTOIMMUNE DISEASE” (Hoffmann-La Roche Inc., priority 2018, published 2021).

The target in this experiment is T1, human TLR7 (Homo sapiens, UniProt Q9NYK1).
T1 sequence (Q9NYK1 27-1049): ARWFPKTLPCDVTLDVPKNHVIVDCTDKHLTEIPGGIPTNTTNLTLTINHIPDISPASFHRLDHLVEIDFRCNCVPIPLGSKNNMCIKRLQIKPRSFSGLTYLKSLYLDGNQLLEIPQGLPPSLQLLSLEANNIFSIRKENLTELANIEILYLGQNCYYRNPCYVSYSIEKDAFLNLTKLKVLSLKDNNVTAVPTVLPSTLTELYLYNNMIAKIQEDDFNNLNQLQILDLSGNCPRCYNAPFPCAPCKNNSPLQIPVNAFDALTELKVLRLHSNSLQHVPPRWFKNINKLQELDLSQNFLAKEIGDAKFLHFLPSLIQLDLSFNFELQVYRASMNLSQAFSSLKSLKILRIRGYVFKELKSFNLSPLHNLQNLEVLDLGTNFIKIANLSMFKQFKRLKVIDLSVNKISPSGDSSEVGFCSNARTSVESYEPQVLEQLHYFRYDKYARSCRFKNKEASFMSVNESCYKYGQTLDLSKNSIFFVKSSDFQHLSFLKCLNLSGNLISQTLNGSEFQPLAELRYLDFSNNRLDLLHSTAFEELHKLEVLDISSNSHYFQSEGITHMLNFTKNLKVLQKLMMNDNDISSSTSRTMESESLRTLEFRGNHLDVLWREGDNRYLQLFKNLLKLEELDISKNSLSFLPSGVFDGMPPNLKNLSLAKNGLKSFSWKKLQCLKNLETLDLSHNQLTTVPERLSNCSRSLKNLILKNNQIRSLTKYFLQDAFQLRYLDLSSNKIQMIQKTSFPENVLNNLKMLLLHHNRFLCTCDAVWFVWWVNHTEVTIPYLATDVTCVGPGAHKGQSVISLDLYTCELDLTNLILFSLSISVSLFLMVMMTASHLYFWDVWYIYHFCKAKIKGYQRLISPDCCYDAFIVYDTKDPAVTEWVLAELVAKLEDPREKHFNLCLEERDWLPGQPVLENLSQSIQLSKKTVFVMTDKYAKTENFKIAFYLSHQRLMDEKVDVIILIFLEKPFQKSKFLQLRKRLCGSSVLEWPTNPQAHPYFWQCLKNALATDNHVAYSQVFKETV
Put plainly: HEK293-Blue-hTLR-7 cells assay. It is filed as cell-based. Conditions: HEK293-Blue-hTLR7 cells, SEAP reporter, R848 stimulation, 20 hrs. An excerpt: HEK293-Blue-hTLR-7 Cells Assay:
A stable HEK293-Blue-hTLR-7 cell line was purchased from InvivoGen (Cat. #: hkb-htlr7, San Diego, Calif., USA). These cells were originally designed for studying the stimulation of human TLR7 by monitoring the activation of NF-κB. A SEAP (secreted embryonic alkaline phosphatase) reporter gene was placed under the control of the IFN-β minimal promoter fused to five NF-κB and AP-1-binding sites. The SEAP was induced by activating NF-κB and AP-1 via stimulating HEK-Blue hTLR7 cells with TLR7 ligands. Therefore the reporter expression was declined by TLR7 antagonist under the stimulation of a ligand, such as R848 (Resiquimod), for incubation of 20 hrs. The cell culture supernatant SEAP reporter activity was determined using QUANTI-Blue™ kit (Cat. #: rep-qb1, Invivogen, San Diego, Ca, USA) at a wavelength of 640 nm, a detection medium that turns purple or blue in the presence of alkaline phosphatase.
HEK293-Blue-hTLR7 cells were incubated at a density of 250,000˜450,000 cells/mL in a volume of 170 μL in a 96-well plate in Dulbecco's Modified Eagle's medium (DMEM) containing 4.5 g/L glucose, 50 U/mL penicillin, […], […], 2 mM L-glutamine, 10% (v/v) heat-inactivated fetal bovine serum with addition of 20 sL test compound in a serial dilution in the presence of final DMSO at 1% and 10 μL of 20 uM R848 in above DMEM, perform incubation under 37° C. in a CO2 incubator for 20 hrs. Then 20 μL of the supernatant from each well was incubated with 180 sL Quanti-blue substrate solution at 37° C. for 2 hrs and the absorbance was read at 620-655 nm using a spectrophotometer. The signalling pathway that TLR7 activation leads to downstream NF-κB activation has been widely accepted, and therefore similar reporter assay was modified for evaluating TLR7 antagonist.

Turning to `C[C@@H]1CN(c2ccc(C#N)c3ncccc23)C[C@H]1C(=O)N[C@H]1CNC[C@H]1F` [Example 56, Trans-1-(8-cyano-5-quinolyl)-N-[(3S,4R)-4-fluoropyrrolidin-3-yl]-4-methyl-pyrrolidine-3-carboxamide], half-maximal inhibition (IC50) required 282 nM.

On to `CN1CCC(NC(=O)[C@@H]2CN(c3ccc(C#N)c4ncccc34)C[C@H]2C2CC2)CC1` (relative stereo) [Example 14, Trans-1-(8-cyano-5-quinolyl)-4-cyclopropyl-N-(1-methyl-4-piperidyl)pyrrolidine-3-carboxamide], for which the half-maximal inhibitory concentration (IC50) was 20 nM.

Take `NC1CC(NC(=O)C2CN(c3ccc(C(F)(F)F)c4nccnc34)CC23CC3)C1` (stereo not shown) [Example 38, N-(3-Aminocyclobutyl)-5-[8-(trifluoromethyl)quinoxalin-5-yl]-5-azaspiro[2.4]heptane-7-carboxamide]: inhibition was half-maximal at 59 nM (IC50).

In turn, `C[C@H]1CN(c2ccc(Cl)c3ncccc23)C[C@@H]1C(=O)NC1CCN(C)CC1` [Example 50, (3R,4R)-1-(8-chloro-5-quinolyl)-4-methyl-N-(1-methyl-4-piperidyl)pyrrolidine-3-carboxamide] came in with an IC50 of 178 nM.

In the case of `N#Cc1ccc(N2CC(C(=O)NC[C@@H]3CNCCO3)C3(CC3)C2)c2nccnc12` (single isomer, unassigned) [Example 71B], the IC50 worked out at 202 nM.

`C[C@H]1CN(c2ccc(C(F)(F)F)c3nccnc23)C[C@@H]1C(=O)NC1CCN(C)CC1` [Example 5, (3R,4R)-4-methyl-N-(1-methyl-4-piperidyl)-1-[8-(trifluoromethyl)quinoxalin-5-yl]pyrrolidine-3-carboxamide] returned an IC50 of 8 nM.

`CN(C)CC1CC(NC(=O)C2CN(c3ccc(C(F)(F)F)c4nccnc34)CC23CC3)C1` (stereo not shown) [Example 26, N-[3-[(dimethylamino)methyl]cyclobutyl]-5-[8-(trifluoromethyl)quinoxalin-5-yl]-5-azaspiro[2.4]heptane-7-carboxamide] yielded an IC50 of 36 nM.

On to `N#Cc1ccc(N2CC(C(=O)NC3CCCNCC3)C(C(F)(F)F)C2)c2cccnc12` (single isomer, unassigned) [Example 30B, N-(azepan-4-yl)-1-(8-cyano-5-quinolyl)-4-(trifluoromethyl)pyrrolidine-3-carboxamide], for which the IC50 turned out to be 50 nM.

Take `C[C@@H]1CN(c2ccc(C(F)(F)F)c3nccnc23)C[C@H]1C(=O)NC1CCN(C)CC1` [Example 25, (3S,4S)-4-Methyl-N-(1-methyl-4-piperidyl)-1-[8-(trifluoromethyl)quinoxalin-5-yl]pyrrolidine-3-carboxamide]: the IC50 was found to be 33 nM.

With `NC1CC2(C1)CC(NC(=O)C1CN(c3ccc(C(F)(F)F)c4nccnc34)CC13CC3)C2` (stereo not shown) [Example 22, N-(6-aminospiro[3.3]heptan-2-yl)-5-[8-(trifluoromethyl)quinoxalin-5-yl]-5-azaspiro[2.4]heptane-7-carboxamide], the IC50 was found to be 28 nM.

With `CN1CCC(NC(=O)[C@@H]2CN(c3ccc(Cl)c4ncccc34)C[C@H]2C(F)(F)F)CC1` (relative stereo) [Example 46, Trans-1-(8-chloro-5-quinolyl)-N-(1-methyl-4-piperidyl)-4-(trifluoromethyl)pyrrolidine-3-carboxamide], the IC50 came out at 108 nM.

The compound `O=C(NC1CC2CCC(C1)N2)C1CN(c2ccc(C(F)(F)F)c3nccnc23)CC12CC2` (stereo not shown) [Example 23, N-(8-azabicyclo[3.2.1]octan-3-yl)-5-[8-(trifluoromethyl)quinoxalin-5-yl]-5-azaspiro[2.4]heptane-7-carboxamide] showed an IC50 of 28 nM.

The compound `N[C@@H]1C[C@H](NC(=O)C2CN(c3ccc(C(F)(F)F)c4nccnc34)CC23CC3)[C@@H]2C[C@@H]21` (stereo partly drawn) [Example 36, N-[(1R,2S,4R,5S)-4-amino-2-bicyclo[3.1.0]hexanyl]-5-[8-(trifluoromethyl)quinoxalin-5-yl]-5-azaspiro[2.4]heptane-7-carboxamide] gave an IC50 of 57 nM.
